According to patent EP2497475A1, “Treatment of laminitis with platelet aggregation inhibitors” (priority 2011, dated 2012):
Where two headings read alike, the source gives them in different places.

Test system: laminitis
Format: in vivo, horse

CC(=O)Oc1cc2c(s1)CCN(C(C(=O)C1CC1)c1ccccc1F)C2 (stereo not drawn) [Prasugrel]
Therapy progress (Example 1: 8 year old Shetty-gelding, acute attack, initial 20 mg Prasugrel + 1000 mg acetylsalicylic acid per 60 kg, then 10 mg + 500 mg per 60 kg twice a day, change in feeding, day 2): distinct pulsation in all 4 legs; the horse is more interested in its surrounding
Therapy progress (Example 1: Shetty-gelding, Prasugrel in combination with acetylsalicylic acid, day 3): pulsation in the front legs less, in the back legs the same; horse comes when it is called
1. Follow-up examination (Example 1: Shetty-gelding, Prasugrel in combination with acetylsalicylic acid, day 4): day 4: pulsation in all 4 legs; horse walks with medium grade turning pain.
2. Follow-up examination: signs of laminitis (Example 1: Shetty-gelding, Prasugrel in combination with acetylsalicylic acid, day 6): no signs of laminitis
2. Follow-up examination: hoof ulcers (Example 1: Shetty-gelding, Prasugrel in combination with acetylsalicylic acid, day 8): no hoof ulcers observable
2. Follow-up examination: recurrence of laminitis (Example 1: Shetty-gelding, after stop of treatment on day 10, change of feeding kept): no more laminitis occurred
Therapy progress (Example 2: 8 year old Shetty-mare, per 60 kg 10 mg Prasugrel + 500 mg acetylsalicylic acid twice a day, change in feeding, from day 3 on): light amelioration
Therapy progress: pulsation (Example 2: Shetty-mare, Prasugrel in combination with acetylsalicylic acid, from day 7 on): no pulsation anymore sensible
Therapy progress: pulsation (Example 2: Shetty-mare, Prasugrel in combination with acetylsalicylic acid, until day 5): pulsation clearly sensible
Follow-up examination (Example 2: Shetty-mare, 1 month later (treatment stopped on day 14)): no pulsation; attitude without pathological findings
Therapy progress (Example 3: 12 year old Pony-gelding, 10 mg Prasugrel + 500 mg acetylsalicylic acid per 60 kg twice a day, change in feeding, from day 2 on): light amelioration
Therapy progress: movement (Example 3: Pony-gelding, Prasugrel in combination with acetylsalicylic acid, day 6): pony walks still restrained
Therapy progress: movement (Example 3: Pony-gelding, Prasugrel in combination with acetylsalicylic acid, day 10): unlimited movement
Therapy progress: pulsation (Example 3: Pony-gelding, Prasugrel in combination with acetylsalicylic acid, from day 4 on): no pulsation anymore sensible
Therapy progress (Example 4: 8 year old Shetty-gelding, acute attack, 10 mg Prasugrel + 500 mg acetylsalicylic acid per 60 kg twice a day, change in feeding, day 3): pony standing in bran, but still heavy pain on all 4 legs
Therapy progress (Example 4: Shetty-gelding, Prasugrel in combination with acetylsalicylic acid, day 5): clear amelioration of its attitude; less pulsation
Therapy progress: pulsation (Example 4: Shetty-gelding, Prasugrel in combination with acetylsalicylic acid, from day 10 on): no pulsation sensible anymore
Follow-up examination: outcome of pregnancy (in vivo): normal birth of a healthy foal
